Reference: patent US9409876B2, “Bradykinin receptor antagonists and pharmaceutical compositions containing them” (DOMPE' FARMACEUTICI S.P.A., priority 2013, dated 2016)
Where two headings read alike, the source gives them in different places.

Legend:
[1] = Pharmacokinetics after oral gavage; format: in vivo, rat; conditions: for AUC(0-inf): read-out: AUCINF_obs (converted); for half-life: read-out: T½
Method: In three of the rats tested in Example 56, indicated as R1, […], also the pharmacokinetic profile of compound 8 (R,R) was evaluated. The results are summarised in Tables III to IV and in FIGS. 1-4.
FIGS. 1 and 2 show the plasma concentrations, expressed in ng/ml, of compound 8 (R,R) over time after oral administration for each of the three subjects tested (FIG. 1) and as an average (FIG. 2).
In tables III and V, T1/2 means the half-time of the compound, Tmax means the time at which the concentration of the compound reaches the maximum level, Cmax means the maximal concentration, Tlast means the latest time-point at which the concentration of the compound can be measured, Clast means the concentration at the latest time-point at which the concentration of the compound can be measured, AUClast means the area under the curve at the latest time-point at which the concentration of the compound can be measured, AUCinf_obs means the area under the curve which is infinitely extrapolated and MRTlast means the mean residence time at the latest time-point at which the concentration of the compound can be measured.
In tables IV and VI, LLOQ means lower limit of quantification.

BKB1 receptors = target: T1, BKB1 receptors (Homo sapiens, UniProt P46663); assay: Calcium Mobilization Assay (FLIPR), IMR-90 cells, BKB1; format: cell-based; conditions: IL-1 induced IMR-90 cells, agonist desArg10-kallidin (DAKD)
T1 construct: Human (IMR-90) lung fibroblast cells expressing native BKB1 receptors; endogenous in cells; host or cells: IMR-90 human lung fibroblasts, treated with human IL-1 to up-regulate BKB1
T1 sequence (P46663 1-353): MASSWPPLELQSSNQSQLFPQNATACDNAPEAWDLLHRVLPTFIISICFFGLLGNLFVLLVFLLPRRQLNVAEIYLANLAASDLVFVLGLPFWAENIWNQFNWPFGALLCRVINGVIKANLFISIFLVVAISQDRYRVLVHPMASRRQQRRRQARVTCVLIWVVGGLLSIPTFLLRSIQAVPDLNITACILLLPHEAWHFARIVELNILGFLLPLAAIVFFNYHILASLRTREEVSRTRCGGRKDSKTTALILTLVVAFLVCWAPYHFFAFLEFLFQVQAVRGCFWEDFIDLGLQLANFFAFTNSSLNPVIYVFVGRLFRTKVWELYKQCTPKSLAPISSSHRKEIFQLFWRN
Method: Calcium Mobilization Assay (FLIPR)—Human (IMR-90) lung fibroblast cells expressing native BKB1 receptors were harvested by trypsinization and seeded into black wall/clear bottom 96-well plates (Costar 3904; Corning Life Sciences, Acton, Mass.) at approximately 13,000 cells/well. After 1 day incubation, cells were treated with human IL-1 (0.35 ng/ml) in 10% FBS/MEM for 2 h to up-regulate BKB1 receptors. Induced cells were loaded with fluorescent calcium indicator by incubation with 2.3 µM Fluo-4/acetoxymethyl ester (Invitrogen) at 37° C. for 1.5 h in the presence of an anion transport inhibitor (2.5 mM probenecid in 1% FBS/MEM). Extracellular dye was removed by washing with assay buffer (2.5 mM probenecid, 0.1% BSA in 20 mM HEPES/HBSS without bicarbonate or phenol red, pH 7.5) and cell plates were kept in the dark until used. Test compounds were assayed at eight concentrations in triplicate.

[2] = Sprague-Dawley (SD), rat, plasma, po, 10 mg/kg, oral administration, Average, read-out: plasma level
[3] = Sprague-Dawley (SD), rat, plasma, po, 10 mg/kg, oral administration, Rat2, read-out: plasma level
[4] = Sprague-Dawley (SD), rat, plasma, po, 10 mg/kg, oral administration, Rat3, read-out: plasma level
[5] = Sprague-Dawley, rat, plasma, po, 10 mg/kg, 10 mg/kg oral gavage, Average
[6] = Sprague-Dawley, rat, plasma, po, 10 mg/kg, 10 mg/kg oral gavage, Rat 1
[7] = Sprague-Dawley, rat, plasma, po, 10 mg/kg, 10 mg/kg oral gavage, Rat 2
[8] = Sprague-Dawley, rat, plasma, po, 10 mg/kg, 10 mg/kg oral gavage, Rat 3
[9] = Sprague-Dawley, rat, plasma, po, 10 mg/kg, oral administration, Average, read-out: plasma level
[10] = Sprague-Dawley, rat, plasma, po, 10 mg/kg, oral administration, Rat1, read-out: plasma level
[11] = Sprague-Dawley, rat, plasma, po, 10 mg/kg, oral administration, Rat2, read-out: plasma level
[12] = Sprague-Dawley, rat, plasma, po, 10 mg/kg, oral administration, Rat3, read-out: plasma level

COc1ccccc1CN(C(=O)CC(C)C)[C@@H](C(=O)NC[C@H]1CCCO1)c1ccc(C)cc1 [Compound 8 (R,R), 3-methyl-N-(2-methoxybenzyl)-N-{[(1R)-1-(4-methylphenyl)]-2-oxo-2-[(2R)-(tetrahydrofuran-2-ylmethyl)amino]ethyl}butanamide]
Clast ([1]; 10 mg/kg oral gavage, Average): 1.1 ng/mL
Tlast ([1]; 10 mg/kg oral gavage, Average): 200.0 min
Tlast ([1]; 10 mg/kg oral gavage, Rat 1): 240 min
Tlast ([1]; 10 mg/kg oral gavage, Rat 2): 240 min
Tlast ([1]; 10 mg/kg oral gavage, Rat 3): 120 min
bioavailability ([1]; SD (Sprague-Dawley), rat, plasma, 10 mg/kg, oral vs intravenous exposure): 0.16%
Cmax ([1]; SD (Sprague-Dawley), rat, plasma, po, 10 mg/kg, oral administration): ~3 ng/mL
concentration at 15 min [1, 2]: 2.6 ng/mL
concentration at 15 min [1, 3]: 3 ng/mL
concentration at 15 min [1, 4]: 2.3 ng/mL
concentration at 30 min [1, 2]: 2 ng/mL
concentration at 30 min ([1]; Sprague-Dawley (SD), rat, plasma, po, 10 mg/kg, oral administration, Rat1, read-out: plasma level): 1.8 ng/mL
concentration at 30 min [1, 3]: 2.4 ng/mL
concentration at 30 min [1, 4]: 1.7 ng/mL
concentration at 240 min ([1]; Sprague-Dawley, rat, plasma, oral, 10 mg/kg, 10 mg/kg oral gavage, Rat 1, read-out: Clast): 1.1 ng/mL
concentration at 240 min ([1]; Sprague-Dawley, rat, plasma, oral, 10 mg/kg, 10 mg/kg oral gavage, Rat 2, read-out: Clast): 1.1 ng/mL
concentration at 120 min ([1]; Sprague-Dawley, rat, plasma, oral, 10 mg/kg, 10 mg/kg oral gavage, Rat 3, read-out: Clast): 1 ng/mL
AUC(0-t) [1, 5]: 5.63 ng·h/mL
Cmax [1, 5]: 3.4 ng/mL
MRT last [1, 5]: 1.41 h
Tmax [1, 5]: 0.138 h
AUC(0-inf) [1, 5]: 10.8 ng·h/mL
half-life [1, 5]: 3.37 h
AUC(0-t) [1, 6]: 5.67 ng·h/mL
Cmax [1, 6]: 4 ng/mL
MRT last [1, 6]: 1.69 h
Tmax [1, 6]: 0.0833 h
AUC(0-inf) [1, 6]: 14.4 ng·h/mL
half-life [1, 6]: 5.75 h
AUC(0-t) [1, 7]: 8.62 ng·h/mL
Cmax [1, 7]: 3 ng/mL
MRT last [1, 7]: 1.73 h
Tmax [1, 7]: 0.25 h
AUC(0-inf) [1, 7]: 13.7 ng·h/mL
half-life [1, 7]: 3.19 h
AUC(0-t) [1, 8]: 2.59 ng·h/mL
Cmax [1, 8]: 3.3 ng/mL
MRT last [1, 8]: 0.795 h
Tmax [1, 8]: 0.0833 h
AUC(0-inf) [1, 8]: 4.28 ng·h/mL
half-life [1, 8]: 1.17 h
concentration at 5 min [1, 9]: 3.1 ng/mL
concentration at 5 min [1, 10]: 4 ng/mL
concentration at 5 min [1, 11]: 2.2 ng/mL
concentration at 5 min [1, 12]: 3.3 ng/mL
concentration at 15 min [1, 10]: 2.7 ng/mL
concentration at 60 min [1, 9]: 1.4 ng/mL
concentration at 60 min [1, 10]: 1.3 ng/mL
concentration at 60 min [1, 11]: 2.1 ng/mL
concentration at 60 min [1, 12]: 0.8 ng/mL
concentration at 120 min ([1]; Sprague-Dawley, rat, plasma, po, 10 mg/kg, oral administration, 120 min, Average, read-out: plasma level): 1.7 ng/mL
concentration at 120 min ([1]; Sprague-Dawley, rat, plasma, po, 10 mg/kg, oral administration, 120 min, Rat1, read-out: plasma level): 1.3 ng/mL
concentration at 120 min ([1]; Sprague-Dawley, rat, plasma, po, 10 mg/kg, oral administration, 120 min, Rat2, read-out: plasma level): 2.8 ng/mL
concentration at 120 min ([1]; Sprague-Dawley, rat, plasma, po, 10 mg/kg, oral administration, 120 min, Rat3, read-out: plasma level): 1 ng/mL
concentration at 240 min ([1]; Sprague-Dawley, rat, plasma, po, 10 mg/kg, oral administration, 240 min, Average, read-out: plasma level): 1.1 ng/mL
concentration at 240 min ([1]; Sprague-Dawley, rat, plasma, po, 10 mg/kg, oral administration, 240 min, Rat1, read-out: plasma level): 1.1 ng/mL
concentration at 240 min ([1]; Sprague-Dawley, rat, plasma, po, 10 mg/kg, oral administration, 240 min, Rat2, read-out: plasma level): 1.1 ng/mL
absorption after oral administration ([1]; compared to the intravenous exposure): very poor absorption
plasma level ([1]; oral administration, 240 min, Rat3): <LLOQ
plasma level ([1]; oral administration, 480 min, Average): <LLOQ
plasma level ([1]; oral administration, 480 min, Rat1): <LLOQ
plasma level ([1]; oral administration, 480 min, Rat2): <LLOQ
plasma level ([1]; oral administration, 480 min, Rat3): <LLOQ
IC50 (BKB1 receptors): 0.134 µM
